This note sets out measurements from ChEMBL document CHEMBL1201862, “PubChem BioAssay data set” (2004).

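Tested at 5 concentrations; 48 h exposure; 96-well plates; endpoints linearly interpolated, else capped at highest concentration. Abbreviation: GI50, concentration required for 50% inhibition of growth.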 The source made the active and inactive calls. Rule as the data show it: active = GI50 up to about 1.1 µM and inactive = higher. Bounds are passed on as bounds.

Common to all, as to assay: inhibition of tumour cell growth, NCI panel, 48 h
Assay [1] has as its system U-251.
Assay [2] concerns SN12C.
For assay [3], the system named is NCI-H522.
Assay [4] concerns RPMI-8226.
The test system of assay [5] is HOP-62.
In assay [6] the test system is M19-MEL.
The test system of assay [7] is SR.
The subject of assay [8] is SF-295.
The test system of assay [9] is HOP-92.
Assay [10] deals with OVCAR-5.
In assay [11] the test system is KM-20L2.
Assay [12] has as its system CAKI-1.
The test system of assay [13] is COLO 205.
Assay [14] deals with HT-29.
Assay [15] concerns TK-10.
The subject of assay [16] is HCC 2998.
The subject of assay [17] is UACC-257.
Assay [18] deals with M14.
Assay [19] concerns CCRF-CEM.

On to `COC(=O)C12OCC34C(CC5C(C)C6=CC(=O)OC6=CC5(C)C3C(O)C1O)OC(=O)C(O)C24` (configuration not stated), for which the GI50 in assay [1] is 0.233 µM (active); in assay [2], 1.48 µM (inactive); in assay [3] it was 0.533 µM (active); in assay [4], 0.0809 µM (active); in assay [5], 0.78 µM (active); in assay [6], 0.192 µM (active). Also, the GI50 was < 0.01 µM (active) in assay [7]; 1.53 µM (inactive) in [8]; 0.231 µM (active) in [9]; 2.56 µM (inactive) in assay [10]; 0.957 µM (active) in assay [11]; 4.08 µM (inactive) in assay [12]. In addition, the GI50 in assay [13] was 6.43 µM (inactive); in [14], 0.217 µM (active); in assay [15], 1.42 µM (inactive); in [16], 0.156 µM (active); in assay [17], 1.5 µM (inactive).
For `CCCCCCC1=NOC(C(c2cc[nH]c2)N(C)[C@H](C(=O)OC)C(C)C)C1` (some centres not stated), the GI50 in assay [18] was 51.8 µM (inactive); in [1] it was 49.5 µM (inactive); in assay [2], 20.6 µM (inactive); in [3], 16.1 µM (inactive); in assay [19], 16.7 µM (inactive); in assay [5], > 100 µM (inactive). Also, the GI50 in [6] was 32 µM (inactive); in [7] it was 23.6 µM (inactive); in [8], 47.1 µM (inactive); in assay [9], 51.4 µM (inactive); in assay [10] it was > 100 µM (inactive); in assay [11] it was 39 µM (inactive). Moreover, the GI50 is > 100 µM (inactive) in [12]; 15.3 µM (inactive) in assay [13]; 34 µM (inactive) in [14]; 35.4 µM (inactive) in assay [15]; 33.9 µM (inactive) in [16]; 37.7 µM (inactive) in [17].
For `CCOC(=O)C12CCCC1(O)N(NC(=O)c1cccc(Cl)c1)C(C)=C2C(=O)OC` (configuration not stated), the GI50 in [18] is > 100 µM (inactive); in [1] it was > 100 µM (inactive); in assay [2], > 100 µM (inactive); in [3], 40.5 µM (inactive); in assay [4], 56 µM (inactive); in [5], > 100 µM (inactive). Also, the GI50 in [6] is > 100 µM (inactive); in assay [7] it was 53 µM (inactive); in assay [8], 72.4 µM (inactive); in [10] it was > 100 µM (inactive); in [11], > 100 µM (inactive); in [12], > 100 µM (inactive). Moreover, the GI50 in [14] was > 100 µM (inactive); in assay [16], > 100 µM (inactive); in [17] it was 69.5 µM (inactive).
Consider `COC(=O)c1cccn1C(=O)n1cccc1`, for which the GI50 in assay [18], in assay [1], in assay [2], in assay [3], in [19] and in [5] was > 100 µM (inactive) each time. Also, the GI50 in assay [6], in [7], in [8], in assay [9], in assay [10] and in [11] was > 100 µM (inactive) each time. Besides, the GI50 in [12], in [13], in assay [14], in assay [15], in assay [16] and in assay [17] was > 100 µM (inactive) in each case.
Turning to `CCN(CC)CC(=O)NC1c2ccccc2Oc2c(C)cccc21` (configuration not stated), the GI50 in [18] is > 100 µM (inactive); in assay [2] it was > 100 µM (inactive); in assay [4], 78.7 µM (inactive); in assay [19], > 100 µM (inactive); in assay [5], > 100 µM (inactive); in [6], > 100 µM (inactive). Further, the GI50 is 57.7 µM (inactive) in assay [7]; > 100 µM (inactive) in assay [10]; 55.7 µM (inactive) in assay [11]; > 100 µM (inactive) in assay [13]; > 100 µM (inactive) in [14]; > 100 µM (inactive) in [15]. For the same compound, the GI50 in assay [16] and in assay [17] was > 100 µM (inactive) in each case.
Consider `CC(=O)C1CCN(c2ccccc2)C1` (configuration not stated), for which the GI50 in assay [18], in [1], in assay [2], in [3], in [19] and in [5] was > 100 µM (inactive) in each case. The GI50 in [6] is > 100 µM (inactive); in assay [7], > 100 µM (inactive); in assay [8], > 100 µM (inactive); in assay [9], > 100 µM (inactive); in [10], > 100 µM (inactive); in assay [11], > 10 µM (inactive). The GI50 in assay [12], in assay [14], in [15] and in [17] was > 100 µM (inactive) each time.
`N#CC12Cc3ccc4c(c3-c3cccc(c31)CCN2C(=O)c1ccccc1)OCO4` (configuration not stated): the GI50 is > 100 µM (inactive) in assay [18]; > 100 µM (inactive) in [1]; > 100 µM (inactive) in assay [2]; > 10 µM (inactive) in assay [3]; > 100 µM (inactive) in [4]; > 100 µM (inactive) in assay [19]. Also, the GI50 in [5] is > 100 µM (inactive); in [6], > 100 µM (inactive); in assay [7], > 100 µM (inactive); in assay [8], > 100 µM (inactive); in [9], 36.2 µM (inactive); in assay [10] it was > 100 µM (inactive). Moreover, the GI50 in assay [11], in assay [13], in assay [14], in assay [15], in assay [16] and in assay [17] was > 100 µM (inactive) in each case.
Turning to `O=CC1=CCC2c3[nH]c4ccccc4c3CCN2C1` (configuration not stated), the GI50 in assay [1] was 80 µM (inactive); in [2], 102 µM (inactive); in [3], 325 µM (inactive); in assay [4] it was 112 µM (inactive); in assay [19] it was 107 µM (inactive); in assay [5], > 39.6 µM (inactive). In addition, the GI50 in assay [6] was 71.8 µM (inactive); in [7] it was 105 µM (inactive); in assay [8], 106 µM (inactive); in assay [9] it was 111 µM (inactive); in assay [10] it was > 396 µM (inactive); in assay [11] it was 135 µM (inactive). Further, the GI50 in assay [12] is > 396 µM (inactive); in [13] it was 232 µM (inactive); in [14] it was 101 µM (inactive); in assay [15] it was 259 µM (inactive); in assay [16] it was 103 µM (inactive); in assay [17], 98.9 µM (inactive).
For `Clc1ccc(CCn2cncn2)c(Cl)c1`, the GI50 in assay [18], in assay [1], in [2], in [3], in [19] and in assay [5] was > 100 µM (inactive) throughout. Also, the GI50 in assay [6], in assay [7], in assay [8], in assay [9], in [10] and in [11] was > 100 µM (inactive) each time. Besides, the GI50 in [12], in assay [13], in assay [14], in [15], in assay [16] and in assay [17] was > 100 µM (inactive) throughout.
For the compound `COC(=O)C1CCC2(C)[C@H](CCC3O[C@]32C)[C@@]1(C)CC(=O)c1ccoc1` (some centres not stated), the GI50 was > 100 µM (inactive) in assay [18]; 36.6 µM (inactive) in assay [1]; > 100 µM (inactive) in [2]; 21.2 µM (inactive) in assay [3]; 52.7 µM (inactive) in [4]; 31.1 µM (inactive) in assay [19]. For the same compound, the GI50 in assay [5] is > 100 µM (inactive); in assay [6], > 100 µM (inactive); in assay [7] it was 41.5 µM (inactive); in [8], > 100 µM (inactive); in assay [10], > 100 µM (inactive); in assay [11] it was > 100 µM (inactive). The GI50 in assay [12] is > 100 µM (inactive); in assay [13] it was > 100 µM (inactive); in assay [15] it was 36.9 µM (inactive); in assay [16] it was > 100 µM (inactive); in assay [17], > 100 µM (inactive).
Regarding `COC(=O)CC(C(C(C)=O)C(=O)OCc1ccccc1)N1C(=O)OCC1c1ccccc1` (configuration not stated), the GI50 was > 100 µM (inactive) in assay [18]; 65.2 µM (inactive) in [1]; > 100 µM (inactive) in [2]; 51.5 µM (inactive) in assay [4]; > 100 µM (inactive) in assay [19]; > 100 µM (inactive) in assay [5]. Also, the GI50 in assay [6] is > 100 µM (inactive); in assay [7] it was 74.5 µM (inactive); in [8] it was > 100 µM (inactive); in assay [11] it was > 100 µM (inactive); in assay [13] it was > 100 µM (inactive); in assay [14], > 100 µM (inactive). In addition, the GI50 is > 100 µM (inactive) in assay [15], > 100 µM (inactive) in assay [16] and 93.5 µM (inactive) in [17].
For the compound `COC(=O)C1CC(=O)O[C@H]1c1ccc(OC)c(OC)c1` (some centres not stated), the GI50 in assay [18], in assay [1], in [2], in assay [4], in assay [19] and in assay [5] was > 100 µM (inactive) each time. The GI50 in [6], in assay [7], in assay [8], in assay [9], in assay [10] and in assay [11] was > 100 µM (inactive) each time. For the same compound, the GI50 in [12], in [13], in assay [14], in assay [15], in assay [16] and in assay [17] was > 100 µM (inactive) throughout.
